Results on one compound are retold here after PMC4917448 (Journal of biomolecular screening, 2016).

Test [1] relates to HDAC I/II. The test is described as follows: HDAC-Glo I/II assay in HCT116 cells. The test is classed as cell-based, human.
The target of a further test is HDAC9 (Homo sapiens, UniProt Q9UKV0). Briefly: Fluorogenic isoform-specific HDAC assay, HDAC9. The format is biochemical.
A further test has as its target HDAC5 (Homo sapiens, UniProt Q9UQL6). The test is described as follows: Fluorogenic isoform-specific HDAC assay, HDAC5. The test is classed as biochemical.
In another test the test system is HCT116 cells. Briefly: CellTiter-Glo cell viability assay in HCT116. The test is classed as cell-based, human. As to conditions: cherry-pick confirmation, 1 hour. A general note: In ATP-based viability assays light output follows the ATP content of the culture.
The next test deals with T1, HDAC8 (Homo sapiens, UniProt Q9BY41).
T1 sequence (Q9BY41 1-377): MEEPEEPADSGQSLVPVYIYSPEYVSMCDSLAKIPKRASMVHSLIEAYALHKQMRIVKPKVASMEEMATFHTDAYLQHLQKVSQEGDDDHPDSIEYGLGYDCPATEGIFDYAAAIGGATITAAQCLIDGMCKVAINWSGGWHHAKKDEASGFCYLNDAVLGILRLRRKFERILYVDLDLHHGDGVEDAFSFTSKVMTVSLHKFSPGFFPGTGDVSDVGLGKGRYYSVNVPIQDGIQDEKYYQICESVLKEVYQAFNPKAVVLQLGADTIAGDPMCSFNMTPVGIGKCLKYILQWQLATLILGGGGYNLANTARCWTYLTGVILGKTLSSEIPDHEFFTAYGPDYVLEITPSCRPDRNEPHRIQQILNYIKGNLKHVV
The test is described as follows: Fluorogenic isoform-specific HDAC assay, HDAC8. The test is classed as biochemical.

A further test concerns the target T2, HDAC6 (Homo sapiens, UniProt Q9UBN7).
T2 sequence (Q9UBN7 1-1215): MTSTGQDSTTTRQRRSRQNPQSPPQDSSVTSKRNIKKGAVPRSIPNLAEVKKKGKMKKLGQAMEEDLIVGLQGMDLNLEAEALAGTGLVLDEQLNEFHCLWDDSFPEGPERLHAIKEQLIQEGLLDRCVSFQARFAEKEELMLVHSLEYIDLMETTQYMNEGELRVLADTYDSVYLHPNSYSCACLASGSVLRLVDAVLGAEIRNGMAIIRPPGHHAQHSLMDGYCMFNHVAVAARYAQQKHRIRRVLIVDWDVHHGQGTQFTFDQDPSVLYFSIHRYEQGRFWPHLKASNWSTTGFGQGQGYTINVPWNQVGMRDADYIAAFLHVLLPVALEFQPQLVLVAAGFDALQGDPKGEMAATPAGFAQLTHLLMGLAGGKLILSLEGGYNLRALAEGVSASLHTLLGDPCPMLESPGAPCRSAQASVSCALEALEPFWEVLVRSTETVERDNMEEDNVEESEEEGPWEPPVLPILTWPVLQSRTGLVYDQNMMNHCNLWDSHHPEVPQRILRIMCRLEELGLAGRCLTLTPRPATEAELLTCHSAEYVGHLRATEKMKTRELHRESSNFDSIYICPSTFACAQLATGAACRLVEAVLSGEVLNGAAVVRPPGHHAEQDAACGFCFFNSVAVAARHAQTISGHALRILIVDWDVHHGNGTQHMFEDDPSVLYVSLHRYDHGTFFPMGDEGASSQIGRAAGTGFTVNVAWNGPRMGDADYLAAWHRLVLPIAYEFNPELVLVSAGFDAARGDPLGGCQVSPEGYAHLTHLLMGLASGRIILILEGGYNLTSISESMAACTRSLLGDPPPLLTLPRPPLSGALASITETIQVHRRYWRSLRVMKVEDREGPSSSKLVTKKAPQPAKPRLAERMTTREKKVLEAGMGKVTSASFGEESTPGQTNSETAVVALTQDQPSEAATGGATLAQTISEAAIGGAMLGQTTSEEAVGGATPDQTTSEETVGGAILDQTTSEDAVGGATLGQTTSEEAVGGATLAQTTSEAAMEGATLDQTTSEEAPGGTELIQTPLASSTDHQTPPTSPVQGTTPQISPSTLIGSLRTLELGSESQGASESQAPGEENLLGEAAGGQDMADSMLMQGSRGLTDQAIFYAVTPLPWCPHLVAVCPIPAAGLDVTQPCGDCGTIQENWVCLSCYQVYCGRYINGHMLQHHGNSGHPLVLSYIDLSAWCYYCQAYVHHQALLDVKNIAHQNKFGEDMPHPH
Briefly: Fluorogenic isoform-specific HDAC assay, HDAC6. The format is biochemical.

In test [2] the test system is class I and II HDAC enzymes. Briefly: Panel of fluorogenic assays against ten class I and II HDAC isoforms. The format is biochemical, human. As to conditions: red-shifted versions of fluorogenic assays, Figure 4A, 4B.
Test [3] concerns HDAC I/II. Briefly: HDAC-Glo I/II assay in human neural stem cells. The format is cell-based. As to conditions: cherry-pick confirmation.
The target of the next test is HDAC1 (Homo sapiens, UniProt Q13547). The test is described as follows: Fluorogenic isoform-specific HDAC assay, HDAC1. The test is classed as biochemical.
A further test deals with HDAC3 (Homo sapiens, UniProt O15379). Briefly: Fluorogenic isoform-specific HDAC assay, HDAC3. The format is biochemical.
The target in another test is HDAC2 (Homo sapiens, UniProt Q92769). The test is described as follows: Fluorogenic isoform-specific HDAC assay, HDAC2. The test is classed as biochemical.
A further test relates to human neural stem cells. The test is described as follows: CellTiter-Glo cell viability assay in hNSC. The test is classed as cell-based. As to conditions: cherry-pick confirmation, 1 hour.
A further test concerns the target HDAC4 (Homo sapiens, UniProt P56524). Briefly: Fluorogenic isoform-specific HDAC assay, HDAC4. The format is biochemical.

Sequence of HDAC9 (Q9UKV0 whole entry, canonical isoform): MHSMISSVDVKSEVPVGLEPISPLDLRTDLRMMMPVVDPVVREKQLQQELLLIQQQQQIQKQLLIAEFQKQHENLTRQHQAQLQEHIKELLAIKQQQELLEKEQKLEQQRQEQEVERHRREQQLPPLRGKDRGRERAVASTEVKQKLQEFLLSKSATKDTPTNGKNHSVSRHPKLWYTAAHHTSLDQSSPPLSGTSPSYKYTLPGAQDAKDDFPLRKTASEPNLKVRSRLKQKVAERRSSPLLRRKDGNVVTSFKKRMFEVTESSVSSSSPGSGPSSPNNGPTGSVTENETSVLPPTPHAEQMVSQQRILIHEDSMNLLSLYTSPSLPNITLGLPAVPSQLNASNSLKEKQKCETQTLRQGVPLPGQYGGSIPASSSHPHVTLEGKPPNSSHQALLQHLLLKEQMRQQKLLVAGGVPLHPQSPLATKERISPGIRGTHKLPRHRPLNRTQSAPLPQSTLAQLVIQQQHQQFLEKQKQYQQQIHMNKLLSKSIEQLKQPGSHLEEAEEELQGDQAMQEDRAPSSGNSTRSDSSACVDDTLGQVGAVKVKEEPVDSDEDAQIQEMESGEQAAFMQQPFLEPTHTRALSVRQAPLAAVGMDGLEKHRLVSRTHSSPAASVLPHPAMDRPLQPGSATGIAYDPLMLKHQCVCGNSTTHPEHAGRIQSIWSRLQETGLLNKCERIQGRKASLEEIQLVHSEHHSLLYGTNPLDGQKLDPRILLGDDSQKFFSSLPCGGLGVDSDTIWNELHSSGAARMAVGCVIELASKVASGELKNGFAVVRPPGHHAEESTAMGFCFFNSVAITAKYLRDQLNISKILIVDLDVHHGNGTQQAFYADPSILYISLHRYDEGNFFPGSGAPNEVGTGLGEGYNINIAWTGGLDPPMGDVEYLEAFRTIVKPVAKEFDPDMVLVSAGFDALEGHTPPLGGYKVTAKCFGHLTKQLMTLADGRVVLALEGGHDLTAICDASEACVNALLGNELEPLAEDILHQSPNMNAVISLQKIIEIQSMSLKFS
Sequence of HDAC5 (Q9UQL6 whole entry, canonical isoform): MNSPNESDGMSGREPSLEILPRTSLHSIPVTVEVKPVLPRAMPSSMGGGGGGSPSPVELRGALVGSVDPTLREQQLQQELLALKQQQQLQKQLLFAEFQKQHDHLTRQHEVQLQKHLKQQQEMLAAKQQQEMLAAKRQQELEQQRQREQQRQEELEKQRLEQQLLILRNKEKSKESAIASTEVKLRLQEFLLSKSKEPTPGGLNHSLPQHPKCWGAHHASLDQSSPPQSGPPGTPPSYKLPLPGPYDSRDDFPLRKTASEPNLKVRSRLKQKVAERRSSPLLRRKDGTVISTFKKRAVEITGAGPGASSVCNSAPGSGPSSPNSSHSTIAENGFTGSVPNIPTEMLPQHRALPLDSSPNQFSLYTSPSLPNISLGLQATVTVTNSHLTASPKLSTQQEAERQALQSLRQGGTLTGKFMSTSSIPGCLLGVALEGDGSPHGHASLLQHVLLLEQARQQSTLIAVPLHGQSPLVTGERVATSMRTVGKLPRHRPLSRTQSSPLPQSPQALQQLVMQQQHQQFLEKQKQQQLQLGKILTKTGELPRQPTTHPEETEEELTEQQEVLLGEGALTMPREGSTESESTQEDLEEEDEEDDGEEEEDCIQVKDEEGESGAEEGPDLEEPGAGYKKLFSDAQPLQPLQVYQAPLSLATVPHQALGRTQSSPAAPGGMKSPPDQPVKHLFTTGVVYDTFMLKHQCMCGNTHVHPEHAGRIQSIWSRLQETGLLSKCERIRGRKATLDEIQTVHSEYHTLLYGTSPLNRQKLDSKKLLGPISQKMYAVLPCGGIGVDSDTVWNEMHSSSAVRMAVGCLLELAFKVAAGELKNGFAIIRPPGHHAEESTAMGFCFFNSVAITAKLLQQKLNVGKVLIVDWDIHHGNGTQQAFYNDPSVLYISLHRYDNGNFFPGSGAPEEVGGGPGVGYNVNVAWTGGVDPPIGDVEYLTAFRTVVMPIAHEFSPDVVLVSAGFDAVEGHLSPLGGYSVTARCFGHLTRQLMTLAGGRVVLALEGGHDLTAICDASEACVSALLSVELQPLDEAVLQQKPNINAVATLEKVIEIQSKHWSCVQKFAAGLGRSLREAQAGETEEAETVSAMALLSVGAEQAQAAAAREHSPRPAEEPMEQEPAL
Sequence of HDAC4 (P56524 whole entry, canonical isoform): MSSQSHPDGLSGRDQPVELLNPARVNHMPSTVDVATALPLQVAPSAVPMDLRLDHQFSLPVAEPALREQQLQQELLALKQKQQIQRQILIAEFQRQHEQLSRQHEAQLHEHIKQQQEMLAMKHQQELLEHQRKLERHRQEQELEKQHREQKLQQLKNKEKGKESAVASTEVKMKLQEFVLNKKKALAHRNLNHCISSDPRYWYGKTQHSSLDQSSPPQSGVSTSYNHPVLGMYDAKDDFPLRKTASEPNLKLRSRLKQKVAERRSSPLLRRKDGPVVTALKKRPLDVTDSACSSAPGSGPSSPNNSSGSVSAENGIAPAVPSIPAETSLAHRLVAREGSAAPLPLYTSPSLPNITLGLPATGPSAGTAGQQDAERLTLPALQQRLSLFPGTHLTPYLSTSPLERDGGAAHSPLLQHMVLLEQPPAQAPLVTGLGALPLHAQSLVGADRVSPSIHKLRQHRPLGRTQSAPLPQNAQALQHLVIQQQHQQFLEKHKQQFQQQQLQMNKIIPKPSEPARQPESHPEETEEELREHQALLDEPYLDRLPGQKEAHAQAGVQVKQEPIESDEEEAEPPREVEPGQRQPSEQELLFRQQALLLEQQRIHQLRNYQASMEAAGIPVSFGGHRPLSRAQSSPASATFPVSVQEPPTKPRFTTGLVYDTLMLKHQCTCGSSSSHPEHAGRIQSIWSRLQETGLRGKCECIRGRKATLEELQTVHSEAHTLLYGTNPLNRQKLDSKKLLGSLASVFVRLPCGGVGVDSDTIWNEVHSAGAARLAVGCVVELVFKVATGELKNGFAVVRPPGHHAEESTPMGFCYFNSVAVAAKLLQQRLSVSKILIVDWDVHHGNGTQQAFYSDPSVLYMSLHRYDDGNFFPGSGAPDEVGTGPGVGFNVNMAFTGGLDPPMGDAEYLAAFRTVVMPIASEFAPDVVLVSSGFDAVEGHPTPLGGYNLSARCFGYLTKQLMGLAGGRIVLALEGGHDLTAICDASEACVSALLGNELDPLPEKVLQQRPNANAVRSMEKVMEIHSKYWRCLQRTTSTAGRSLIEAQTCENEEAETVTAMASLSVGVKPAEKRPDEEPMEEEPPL
Sequence of HDAC1 (Q13547 whole entry, canonical isoform): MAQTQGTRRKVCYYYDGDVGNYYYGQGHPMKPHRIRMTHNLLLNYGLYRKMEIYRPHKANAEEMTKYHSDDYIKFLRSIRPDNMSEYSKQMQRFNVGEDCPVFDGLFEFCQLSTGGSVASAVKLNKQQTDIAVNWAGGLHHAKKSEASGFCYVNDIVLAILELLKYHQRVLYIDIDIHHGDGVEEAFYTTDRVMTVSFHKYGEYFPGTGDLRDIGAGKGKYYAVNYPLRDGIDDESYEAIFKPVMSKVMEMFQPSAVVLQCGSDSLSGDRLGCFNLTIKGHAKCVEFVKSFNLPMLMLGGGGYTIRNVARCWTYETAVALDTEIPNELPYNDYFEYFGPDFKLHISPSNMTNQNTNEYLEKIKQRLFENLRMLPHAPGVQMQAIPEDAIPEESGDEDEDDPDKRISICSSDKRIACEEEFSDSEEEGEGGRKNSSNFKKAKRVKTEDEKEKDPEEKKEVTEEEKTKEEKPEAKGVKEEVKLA
Sequence of HDAC3 (O15379 whole entry, canonical isoform): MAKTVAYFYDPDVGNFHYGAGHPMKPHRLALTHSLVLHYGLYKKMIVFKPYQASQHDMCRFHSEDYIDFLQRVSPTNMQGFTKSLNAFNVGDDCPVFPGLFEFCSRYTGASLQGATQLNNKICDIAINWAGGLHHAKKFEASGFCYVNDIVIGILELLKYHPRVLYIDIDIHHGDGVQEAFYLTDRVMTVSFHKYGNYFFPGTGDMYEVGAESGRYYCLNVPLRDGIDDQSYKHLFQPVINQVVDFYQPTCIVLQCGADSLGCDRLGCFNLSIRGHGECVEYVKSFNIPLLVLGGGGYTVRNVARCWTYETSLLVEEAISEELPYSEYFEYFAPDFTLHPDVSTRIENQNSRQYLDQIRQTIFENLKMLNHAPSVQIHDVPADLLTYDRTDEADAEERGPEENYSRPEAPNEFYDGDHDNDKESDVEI
Sequence of HDAC3 (Q9Y618 395-489 partner limits assumed): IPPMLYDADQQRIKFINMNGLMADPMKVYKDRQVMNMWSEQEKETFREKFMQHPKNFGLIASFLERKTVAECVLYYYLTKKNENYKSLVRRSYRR
Sequence of HDAC2 (Q92769 whole entry, canonical isoform): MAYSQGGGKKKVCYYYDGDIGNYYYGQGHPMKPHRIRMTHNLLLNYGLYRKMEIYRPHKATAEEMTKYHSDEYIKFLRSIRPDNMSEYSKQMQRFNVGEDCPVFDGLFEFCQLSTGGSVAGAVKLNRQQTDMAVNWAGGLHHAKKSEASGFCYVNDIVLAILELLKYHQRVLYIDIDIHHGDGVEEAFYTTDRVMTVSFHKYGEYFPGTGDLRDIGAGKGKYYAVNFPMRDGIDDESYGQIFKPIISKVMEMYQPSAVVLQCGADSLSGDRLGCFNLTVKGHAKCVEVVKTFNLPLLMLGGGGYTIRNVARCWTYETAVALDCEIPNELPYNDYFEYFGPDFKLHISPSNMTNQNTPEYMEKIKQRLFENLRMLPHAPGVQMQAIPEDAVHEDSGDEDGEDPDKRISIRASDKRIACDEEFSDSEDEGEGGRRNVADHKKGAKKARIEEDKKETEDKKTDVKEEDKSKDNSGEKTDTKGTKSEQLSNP

Take `N=C(N)c1ccc2cc(OC(=O)c3ccc(N=C(N)N)cc3)ccc2c1` [Nafamostat]: the “HDAC-Glo: Efficacy, HCT116” value in the test with HDAC I/II [1] (cherry-pick confirmation, maximal response) was determined as 116 ± 3%. In addition, the “Efficacy, HDAC-Glo I/II HCT116 assay” value in the test on HDAC I/II [1] (powder confirmation, maximal response) turned out to be 99 ± 0%. For the same compound, the IC50 was found to be 1110 ± 250 nM in the test on HDAC I/II [1] (read-out: HDAC-Glo: IC50, HCT116, cherry-pick confirmation, 11 concentrations, 1 hour); 120 ± 30 nM in the test with HDAC I/II [1] (read-out: IC50, HDAC-Glo I/II HCT116 assay, powder confirmation); 1550 nM against HDAC9; 1330 nM on HDAC5; 1520 nM against HDAC8; 4390 nM against HDAC6. For the same compound, the IC50 with HDAC I/II [3] (read-out: HDAC-Glo: IC50, hNSC, 11 concentrations, 1 hour) turned out to be 360 ± 140 nM; on HDAC1, 4670 nM; on HDAC3, 4040 nM; against HDAC2, 4690 nM; against HDAC4, 1490 nM. In addition, in the test with HCT116 cells, the “Viability: IC50, HCT116” value is “Inactive”. For the same compound, the isoform selectivity entry in test [2] was “more selective in inhibiting HDAC4, HDAC5, and HDAC8 than other HDAC isoforms”. Besides, in the test on HDAC I/II [3] (maximal response), the “HDAC-Glo: Efficacy, hNSC” value is on record as 108 ± 1%. Besides, in the test with HDAC I/II [3] (hNSCs, Figure 2), the “inhibition of HDAC-Glo I/II luminescence signals” value is “completely inhibited”. The “Viability: IC50, hNSC” value in the test with human neural stem cells was “Inactive”.
